Laboratory results taken from patent US12390409B2 (NeueRe, LLC, priority 2018, dated 2025).

Key:
[1] = test system: human skin; test: TEWL recovery after disruption by 60:40 DMSO:water formulation, upper thigh; format: in vivo; conditions: 2.0 mM ambroxol in 60:40 (v/v) DMSO:water
Procedure: 60% DMSO has been reported to be the minimum concentration of DMSO needed to disrupt ceramide-containing lipid bilayers in skin (Notman et al Biophysical Journal 93:2056 [2007]).
All time points were measured in duplicate or triplicate.
Also like in the experiment shown in FIG. 1, there is an enduring improvement of approximately 5 g/m^2-h in the rate of water loss of the ambroxol-treated skin relative to skin treated with the DMSO:water formulation alone. […] Shown for each point are the error bars (standard deviation of duplicate or triplicate measurements); for some points the error bars are less visible because they were smaller than the diameter of the symbol representing that point.]

[2] = test system: human (adult male) skin; test: TEWL recovery after skin barrier disruption by 99.9% DMSO, upper thigh; format: in vivo; conditions: 2.0 mM ambroxol in 99.9% DMSO
From the text: Dimethyl sulfoxide (DMSO) is a well-known skin permeability enhancer that is thought to act by disrupting ceramide-containing lipid bilayers of the stratum corneum and thereby compromising the permeability barrier of the skin (Agner and Serup, Clin. Expt. Dermatology 14:214 [1989]; Notman et al Biophysical Journal 93:2056 [2007]). Among its many protective functions, this lipid barrier regulates transepidermal water loss (TEWL) and is vital for the prevention of skin dryness in mammals. Thus, it is accepted by researchers in the field, that measurements of TEWL can be used to directly assay the integrity of the skin permeability barrier (Fluhr et al Experimental Dermatology 15:483 [2006]).
All experiments were conducted in a narrow range of relative humidity (30-40%) and at stable room temperatures of 18-22° C.
Transepidermal water loss (TEWL) measurements, in units of g/m^2-h, were taken at various time points after applying the solutions (at t=0) to the skin sites. TEWL values were assessed using a wireless closed-chamber system (VapoMeter, Delphin Technologies Ltd., Kuopio, Finland) that automatically calculates water evaporation rates over a small area (˜1.3 cm^2); each measurement took about 10 s (Fluhr et al Experimental Dermatology 15:483 [2006]). […] All time points were measured in duplicate or triplicate. […] The improvement in TEWL, a difference of 4-6 g/m^2-h between the two curves, then maintains itself over the remaining course of the experiment. […] Shown for each point are the error bars (standard deviation of duplicate or triplicate measurements); for some points the error bars are less visible because they were smaller than the diameter of the symbol representing that point.]

[3] = test system: skin of volar forearm; test: Dose-ranging study of ambroxol on TEWL, 99.9% DMSO, volar forearm; format: in vivo, human; conditions: ambroxol concentrations much lower than 2.0 mM (20 micromolar to 2.0 mM tested) in 99.9% DMSO, 10 microliter, 1 hr and 10 hr post-application
From the text: Apart from these additional concentrations, conditions and the formulation (99.9% DMSO) were essentially the same as those described in Example 1, except in this experiment 10 microliter aliquots were spread and the skin region tested was on the volar forearm.
The data in FIG. 3 are presented as histograms, with only start points (at 1 hr post-application) and end-points (at 10 hr post application) shown. Two things are notable about this experiment. […] This may reflect the relative delicacy of volar forearm skin compared to skin of the upper thigh, such that the same treatment may be more or less harsh depending on the skin area treated. […] [Symbols: Open rectangles, skin TEWL measured at 1 hr post-application; hatched rectangles, skin TEWL measured at 10 hr post-application; dashed line, average TEWL value (7.8±1.1 g/m^2-hr) of untreated skin from areas adjacent to the treatment sites. All measurements were taken in quadruplicate (n=4) or quintuplicate (n=5). Shown for each value are the error bars (standard deviation of quadruplicate or quintuplicate measurements.]

[4] = test system: skin; conditions: other case reports, positive patch test; cited from earlier work

Nc1c(Br)cc(Br)cc1CN[C@H]1CC[C@H](O)CC1 [ambroxol, trans-4-(2-amino-3,5-dibromobenzylamino) cyclohexanol]
time of the burst of TEWL improvement [1]: in the first hour post-application
improvement in TEWL, difference between ambroxol and control (DMSO only) curves ([2]; 20 microliter on about 2 cm^2 upper thigh skin, maintained after the burst over the remaining course): 4-6 g/m^2-h
period of the rapid burst of skin barrier healing ([2]; upper thigh): approximately 30 minutes
time post-application of sudden drop in TEWL ([2]; upper thigh): about 60 minutes
ameliorating the increase in TEWL caused by the DMSO insult [3]: positive results
adverse skin reaction in case reports [4]: systemic contact dermatitis
